From article PMC4235525, “Anticancer Properties of Novel Rhenium Pentylcarbanato Compounds against MDA-MB-468(HTB-132) Triple Node Negative Human Breast Cancer Cell Lines” (British journal of pharmaceutical research, 2015)

Experiments:
[1] = tested on: Balb/c mouse kidney (mouse glomerular mesangial) cell line; assay: Trypan blue cytotoxicity (nephrotoxicity) in mouse kidney cells; assay type: cell-based; settings: 48 hours, trypan blue assay, drugs in DMSO; read-out: IC-50 (mean ± S.D.), concentration required to have 50% cell-growth inhibition, Mouse Mesangial cell lines
Description: Aim To study the efficacy of novel rhenium compounds to treat triple node negative breast cancer. Place and Duration Six (6) novel rhenium pentycarbanato compounds (PC1-6) were synthesized and triple node negative breast cancer cell lines HTB-132 and Balb/c mouse kidney cell lines were treated with each of them for 48 hours. The results were analyzed by a common trypan blue cell death assay system and statistically analyzed. Place and Duration The compounds were synthesized, analyzed and evaluated at the Department of Chemistryof Morgan State University, Baltimore, Maryland and the Pharmaceutical Sciences Department of Elizabeth City State University campus of the University of North Carolina system. Methodology The novel rhenium compounds were synthesized from one-pot reactions of Re2(CO)10 with the corresponding α-diimine ligands in 1-pentanol.The compounds were characterized spectroscopically. The cell lines were cultured by standard cell culture procedure and treated with each of the six compounds in DMSO for 48 hours with a negative control and a DMSO vehicular control along with a cisplatin positive control.The cytotoxicity was evaluated by standard trypan blue assay and the results were statistically analyzed. […] Conclusion The novel rhenium compounds PC 1-6 can potentially find applications in the treatment of highly malignant triple node negative breast cancer. […]

[2] = tested on: MDA-MB-468 (HTB-132) triple node negative breast cancer cell lines; assay: Trypan blue cytotoxicity assay, 48 h treatment; assay type: cell-based, human; settings: drugs in DMSO, read-out: IC-50 (mean ± S.D.), concentration required to have 50% cell-growth inhibition, Breast Cancer HTB-132 cell lines
Description: MDA-MB-468 (HTB-132) triple node negative breast cancer cell lineswere obtained from ATCC (USA), cultured inL-15 medium supplemented with 10% Fetal Bovine Serum(FBS), penicillin and streptomycin antibiotics and grownat 37°C inan incubator. The mouse glomerular mesangialcell line was a kind gift from Dr. C. Reilly of Virginia Tech University, USA. These cells were cultured in RPMI-1640 medium supplemented with 10%FBS, penicillin and streptomycin antibiotics and grown at 37°C in a carbon dioxide incubator.
HTB-132 breast cancer cell lines were grown in six well plates to confluency, the cells were then kept in serum-free medium overnight and then treated with each of drugsPC1-6 (dissolved in DMSO) along with untreated cells and DMSO vehicular control for 48 hours. […] Atrypan blue assay was done to measure cell viability using a standard hemocytometer and light microscope.
Each experiment was repeated three times and statistical t test was used to analyze the results with P<0.05.

Work on cis-[Pt (NH3)2Cl2] [Cisplatin] yielded an IC50 [1] of 1 ± 2.5 µM and an IC50 [2] of 5 ± 2.5 µM.
